In brackets after ≈: the same amount, converted by molar mass. Read-outs that look alike come from different tables or passages of the source. Where a SMILES comes first, the peptide text is derived from it. [ ]: non-standard residue; d: D form.
Tests used:
[1] = system: P. aeruginosa; test: microbe, parasite or virus in culture; type: cell-based, Pseudomonas aeruginosa
Method in brief: (§1)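 Broth microdilution in MH medium: bacterial strains diluted to 2×10^6 CFU were mixed with equal volumes of peptide serially diluted twofold in MH medium.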

[2] = system: A. baumannii; test: microbe, parasite or virus in culture; type: cell-based, Acinetobacter baumannii
Method in brief: as §1

[3] = system: MDRAB 12035; test: microbe, parasite or virus in culture; type: cell-based, Acinetobacter baumannii
Method in brief: as §1

[4] = system: MDRST 8007; test: Minimal inhibitory concentration (MIC), single agent; type: cell-based, Salmonella typhimurium; details: agent alone
Method in brief: as §1

[5] = system: S. epidermidis; test: microbe, parasite or virus in culture; type: cell-based, Staphylococcus epidermidis
Method in brief: as §1

[6] = system: E. coli; test: MIC of antibiotic during combined treatment with antimicrobial peptide; type: cell-based, Escherichia coli; details: for Antibiotic MIC, Erythromycin / Antibiotic MIC, Linezolid / Antibiotic MIC, Vancomycin: E. coli
Method in brief: (§2)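 Antibiotic diluted in MH medium, dispensed per well with peptide; setup repeated with roles reversed; MIC read per combination.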

[7] = system: A. baumannii; test: as above; type: cell-based, Acinetobacter baumannii; details: for Antibiotic MIC, Erythromycin / Antibiotic MIC, Linezolid / Antibiotic MIC, Vancomycin: A. baumannii
Method in brief: as §2

[8] = system: MDRAB 12035; test: as above; type: cell-based, Acinetobacter baumannii
Method in brief: (§3)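 Antibiotic MIC came from antibiotic dilutions added to bacteria (2×10^6 CFU/ml, MH medium) already combined with peptide serially diluted 2:1 from its own MIC. Swapping the roles of the two agents gave the peptide MIC.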

[9] = system: E. coli; type: cell-based, Escherichia coli; details: E. coli
Method in brief: as §3

[10] = system: MDREC 1229; type: cell-based, Escherichia coli
Method in brief: as §3

[11] = system: A. baumannii; test: MIC of antimicrobial peptide during combined treatment with antibiotic; type: cell-based, Acinetobacter baumannii
Method in brief: as §3

[12] = system: MDRAB 12035; test: as above; type: cell-based, Acinetobacter baumannii
Method in brief: as §3

[13] = combined with peptide at 1 μg/ml
[14] = combined with peptide at 2 μg/ml
[15] = combined with peptide at 4 μg/ml
[16] = combined with peptide at 6 μg/ml
[17] = combined with peptide at 8 μg/ml
[18] = combined with peptide at 16 μg/ml
[19] = combined with peptide at 32 μg/ml
[20] = combined with peptide at 64 μg/ml
[21] = peptide treatment concentration 1 μg/ml
[22] = peptide treatment concentration 2 μg/ml
[23] = peptide treatment concentration 4 μg/ml
[24] = peptide treatment concentration 6 μg/ml
[25] = peptide treatment concentration 8 μg/ml
[26] = peptide treatment concentration 16 μg/ml
[27] = peptide treatment concentration 32 μg/ml
[28] = peptide treatment concentration 64 μg/ml
[29] = linezolid 64 μg/ml (Conc./MIC 1/8)
[30] = linezolid 512 μg/ml (Conc./MIC 1)
[31] = vancomycin 512 μg/ml (Conc./MIC 1/2)
[32] = vancomycin 1024 μg/ml (Conc./MIC 1)
[33] = erythromycin 4 μg/ml (Conc./MIC 1/8)
[34] = erythromycin 8 μg/ml (Conc./MIC 1/4)
[35] = erythromycin 16 μg/ml (Conc./MIC 1/2)
[36] = erythromycin 32 μg/ml (Conc./MIC 1)

Q: Which results are given for CC[C@H](C)[C@H](NC(=O)[C@H](CCCCN)NC(=O)[C@H](Cc1c[nH]c2ccccc12)NC(=O)[C@@H](N)CCCNC(=N)N)C(=O)N[C@@H](Cc1ccccc1)C(=O)N[C@@H](CCCCN)C(=O)N[C@@H](CCCCN)C(=O)N[C@H](C(=O)N[C@H](CC(C)C)C(=O)N[C@@H](CCCCN)C(=O)N[C@@H](CC(C)C)C(=O)N[C@@H](CC(C)C)C(=O)N[C@@H](Cc1c[nH]cn1)C(=O)N[C@@H](CCC(=O)O)C(=O)N[C@@H](Cc1ccccc1)C(=O)N[C@@H](CCCCN)C(=O)N[C@@H](CCCCN)C(=O)N[C@@H](Cc1ccccc1)C(N)=O)[C@@H](C)CC [PapMA-23, RWK IFK KIl KLL HEF KKF-NH2] (H-RWKIFKKI[dL]KLLHEFKKF-NH2; N-terminus assumed)?
A: Minimal inhibitory concentration MIC [1]: 64 µg/mL (≈ 26.6 µM); Minimal inhibitory concentration MIC [2]: 32 µg/mL (≈ 13.3 µM); Peptide MIC, peptide alone [2]: 32 µg/mL; Antibacterial activity relative to PapMA-1 ([2]; A. baumannii and S. typhimurium): at least twice as high; Minimal inhibitory concentration MIC [3]: 32 µg/mL (≈ 13.3 µM); Peptide MIC, peptide alone [3]: 32 µg/mL; Minimal inhibitory concentration MIC [4]: 64 µg/mL (≈ 26.6 µM); Minimal inhibitory concentration MIC [5]: >128 µg/mL; Synergistic effect of antibacterial activity with existing antibiotics compared with PapMA-1 ([6]; E. coli and MDREC1229): level similar to that of the PapMA-1 peptide; Antibiotic MIC, Erythromycin ([6]; erythromycin combined with peptide at 1 μg/ml): 128 µg/mL; Antibiotic MIC, Erythromycin ([6]; erythromycin combined with peptide at 2 μg/ml): 64 µg/mL; Antibiotic MIC, Erythromycin ([6]; erythromycin combined with peptide at 4 μg/ml): 16 µg/mL; Antibiotic MIC, Erythromycin ([6]; erythromycin combined with peptide at 6 μg/ml): 4 µg/mL; Antibiotic MIC, Erythromycin ([6]; erythromycin combined with peptide at 8 μg/ml): 2 µg/mL; Antibiotic MIC, Erythromycin ([6]; erythromycin combined with peptide at 16 μg/ml): 0.5 µg/mL; Antibiotic MIC, Erythromycin ([6]; erythromycin combined with peptide at 32 μg/ml): 0 µg/mL; Antibiotic MIC, Erythromycin ([6]; erythromycin combined with peptide at 64 μg/ml): 0 µg/mL; Antibiotic MIC, Linezolid ([6]; linezolid combined with peptide at 1 μg/ml): >128 µg/mL; Antibiotic MIC, Linezolid ([6]; linezolid combined with peptide at 2 μg/ml): 128 µg/mL; Antibiotic MIC, Linezolid ([6]; linezolid combined with peptide at 4 μg/ml): 64 µg/mL; Antibiotic MIC, Linezolid ([6]; linezolid combined with peptide at 6 μg/ml): 32 µg/mL; Antibiotic MIC, Linezolid ([6]; linezolid combined with peptide at 8 μg/ml): 16 µg/mL; Antibiotic MIC, Linezolid ([6]; linezolid combined with peptide at 16 μg/ml): 16 µg/mL; Antibiotic MIC, Linezolid ([6]; linezolid combined with peptide at 32 μg/ml): 0 µg/mL; Antibiotic MIC, Linezolid ([6]; linezolid combined with peptide at 64 μg/ml): 0 µg/mL; Antibiotic MIC, Vancomycin ([6]; vancomycin combined with peptide at 1 μg/ml): >128 µg/mL; Antibiotic MIC, Vancomycin ([6]; vancomycin combined with peptide at 2 μg/ml): >128 µg/mL; Antibiotic MIC, Vancomycin ([6]; vancomycin combined with peptide at 4 μg/ml): >128 µg/mL; Antibiotic MIC, Vancomycin ([6]; vancomycin combined with peptide at 6 μg/ml): 64 µg/mL; Antibiotic MIC, Vancomycin ([6]; vancomycin combined with peptide at 8 μg/ml): 16 µg/mL; Antibiotic MIC, Vancomycin ([6]; vancomycin combined with peptide at 16 μg/ml): 8 µg/mL; Antibiotic MIC, Vancomycin ([6]; vancomycin combined with peptide at 32 μg/ml): 0 µg/mL; Antibiotic MIC, Vancomycin ([6]; vancomycin combined with peptide at 64 μg/ml): 0 µg/mL; Synergistic effect of antibacterial activity with existing antibiotics compared with PapMA-1 ([7]; A. baumannii and MDRAB 12035): level similar to that of PapMA-1 peptide; Antibiotic MIC, Erythromycin [7, 13]: 32 µg/mL; Antibiotic MIC, Linezolid [7, 13]: >128 µg/mL; Antibiotic MIC, Vancomycin [7, 13]: >128 µg/mL; Antibiotic MIC, Erythromycin [7, 14]: 32 µg/mL; Antibiotic MIC, Linezolid [7, 14]: >128 µg/mL; Antibiotic MIC, Vancomycin [7, 14]: >128 µg/mL; Antibiotic MIC, Erythromycin [7, 15]: 8 µg/mL; Antibiotic MIC, Linezolid [7, 15]: 64 µg/mL; Antibiotic MIC, Vancomycin [7, 15]: 64 µg/mL; Antibiotic MIC, Erythromycin [7, 16]: 4 µg/mL; Antibiotic MIC, Linezolid [7, 16]: 16 µg/mL; Antibiotic MIC, Vancomycin [7, 16]: 32 µg/mL; Antibiotic MIC, Erythromycin [7, 17]: 0.5 µg/mL; Antibiotic MIC, Linezolid [7, 17]: 4 µg/mL; Antibiotic MIC, Vancomycin [7, 17]: 8 µg/mL; Antibiotic MIC, Erythromycin [7, 18]: 0.25 µg/mL; Antibiotic MIC, Linezolid [7, 18]: 2 µg/mL; Antibiotic MIC, Vancomycin [7, 18]: 4 µg/mL; Antibiotic MIC, Erythromycin [7, 19]: 0 µg/mL; Antibiotic MIC, Linezolid [7, 19]: 0 µg/mL; Antibiotic MIC, Vancomycin [7, 19]: 0 µg/mL; Antibiotic MIC, Erythromycin [7, 20]: 0 µg/mL; Antibiotic MIC, Linezolid [7, 20]: 0 µg/mL; Antibiotic MIC, Vancomycin [7, 20]: 0 µg/mL; Erythromycin MIC during combined treatment with peptide [8, 21]: 32 µg/mL; Linezolid MIC during combined treatment with peptide [8, 21]: >128 µg/mL; Vancomycin MIC during combined treatment with peptide [8, 21]: >128 µg/mL; Erythromycin MIC during combined treatment with peptide [8, 22]: 32 µg/mL; Linezolid MIC during combined treatment with peptide [8, 22]: >128 µg/mL; Vancomycin MIC during combined treatment with peptide [8, 22]: >128 µg/mL; Erythromycin MIC during combined treatment with peptide [8, 23]: 16 µg/mL; Linezolid MIC during combined treatment with peptide [8, 23]: 64 µg/mL; Vancomycin MIC during combined treatment with peptide [8, 23]: 128 µg/mL; Erythromycin MIC during combined treatment with peptide [8, 24]: 4 µg/mL; Linezolid MIC during combined treatment with peptide [8, 24]: 32 µg/mL; Vancomycin MIC during combined treatment with peptide [8, 24]: 32 µg/mL; Erythromycin MIC during combined treatment with peptide [8, 25]: 1 µg/mL; Linezolid MIC during combined treatment with peptide [8, 25]: 16 µg/mL; Vancomycin MIC during combined treatment with peptide [8, 25]: 16 µg/mL; Erythromycin MIC during combined treatment with peptide [8, 26]: 0.25 µg/mL; Linezolid MIC during combined treatment with peptide [8, 26]: 4 µg/mL; Vancomycin MIC during combined treatment with peptide [8, 26]: 8 µg/mL; Erythromycin MIC during combined treatment with peptide [8, 27]: 0 µg/mL; Linezolid MIC during combined treatment with peptide [8, 27]: 0 µg/mL; Vancomycin MIC during combined treatment with peptide [8, 27]: 0 µg/mL; Erythromycin MIC during combined treatment with peptide [8, 28]: 0 µg/mL; Linezolid MIC during combined treatment with peptide [8, 28]: 0 µg/mL; Vancomycin MIC during combined treatment with peptide [8, 28]: 0 µg/mL; Peptide MIC ([9]; with Erythromycin […] (Conc./MIC 1)): 0 µg/mL; Peptide MIC ([9]; with Linezolid […] (Conc./MIC 1)): 0 µg/mL; Peptide MIC ([9]; with Vancomycin 1024 μg/ml (Conc./MIC 1)): 0 µg/mL; Peptide MIC during treatment with antibiotic ([10]; erythromycin 32 μg/ml (Conc./MIC 1/8)): 4 µg/mL; Peptide MIC during treatment with antibiotic ([10]; erythromycin 64 μg/ml (Conc./MIC 1/4)): 2 µg/mL; Peptide MIC during treatment with antibiotic ([10]; erythromycin […] (Conc./MIC 1)): 0 µg/mL; Peptide MIC during treatment with antibiotic ([10]; erythromycin […] (Conc./MIC 1/2)): 1 µg/mL; Peptide MIC during treatment with antibiotic [10, 29]: 4 µg/mL; Peptide MIC during treatment with antibiotic [10, 30]: 0 µg/mL; Peptide MIC during treatment with antibiotic ([10]; linezolid […] (Conc./MIC 1/2)): 1 µg/mL; Peptide MIC during treatment with antibiotic ([10]; linezolid […] (Conc./MIC 1/4)): 2 µg/mL; Peptide MIC during treatment with antibiotic [10, 31]: 2 µg/mL; Peptide MIC during treatment with antibiotic [10, 32]: 1 µg/mL; Peptide MIC during treatment with antibiotic ([10]; vancomycin […] (Conc./MIC 1/4)): 4 µg/mL; Peptide MIC during treatment with antibiotic ([10]; vancomycin […] (Conc./MIC 1/8)): 8 µg/mL; Peptide MIC during treatment with erythromycin [11, 33]: 8 µg/mL; Peptide MIC during treatment with erythromycin [11, 34]: 4 µg/mL; Peptide MIC during treatment with erythromycin [11, 35]: 4 µg/mL; Peptide MIC during treatment with erythromycin [11, 36]: 0 µg/mL; Peptide MIC during treatment with linezolid ([11]; linezolid 32 μg/ml (Conc./MIC 1/8)): 8 µg/mL; Peptide MIC during treatment with linezolid ([11]; linezolid 64 μg/ml (Conc./MIC 1/4)): 4 µg/mL; Peptide MIC during treatment with linezolid ([11]; linezolid […] (Conc./MIC 1)): 0 µg/mL; Peptide MIC during treatment with linezolid ([11]; linezolid […] (Conc./MIC 1/2)): 1 µg/mL; Peptide MIC during treatment with vancomycin [11, 31]: 0.25 µg/mL; Peptide MIC during treatment with vancomycin [11, 32]: 0 µg/mL; Peptide MIC during treatment with vancomycin ([11]; vancomycin […] (Conc./MIC 1/4)): 0.5 µg/mL; Peptide MIC during treatment with vancomycin ([11]; vancomycin […] (Conc./MIC 1/8)): 4 µg/mL; Peptide MIC during treatment with erythromycin [12, 33]: 8 µg/mL; Peptide MIC during treatment with erythromycin [12, 34]: 8 µg/mL; Peptide MIC during treatment with erythromycin [12, 35]: 4 µg/mL; Peptide MIC during treatment with erythromycin [12, 36]: 0 µg/mL; Peptide MIC during treatment with linezolid [12, 29]: 4 µg/mL; Peptide MIC during treatment with linezolid [12, 30]: 0 µg/mL; Peptide MIC during treatment with linezolid ([12]; linezolid […] (Conc./MIC 1/2)): 1 µg/mL; Peptide MIC during treatment with linezolid ([12]; linezolid […] (Conc./MIC 1/4)): 4 µg/mL; Peptide MIC during treatment with vancomycin [12, 31]: 2 µg/mL; Peptide MIC during treatment with vancomycin [12, 32]: 1 µg/mL; Peptide MIC during treatment with vancomycin ([12]; vancomycin […] (Conc./MIC 1/4)): 4 µg/mL; Peptide MIC during treatment with vancomycin ([12]; vancomycin […] (Conc./MIC 1/8)): 4 µg/mL

From patent US11214594B2, “Antimicrobial peptide having synergistic antibacterial effect with antibiotics on multidrug resistant bacteria, and use thereof” (priority 2016, dated 2022)
